# Results from patent publication US4264596A, “Maytansinoids, pharmaceutical compositions thereof and method of use thereof” (Takeda Chemical Industries, Ltd., priority 1980, dated 1981).
# Experiments:
# Tetrahymena pyriformis W = assay: Antiprotozoal activity, growth inhibition by serial dilution method; type: cell-based; conditions: 28° C., 44 to 48 hours, pH 7.0, serial dilution method, read-out: Antiprotozoal activity, MIC (minimal inhibitory concentration)
# Experimental: Antiprotozoal activity of compound (I) was assayed with Tetrahymena pyriformis W as the test organism and a medium composed of 20 g tryptose-peptone (Difco Co.), 1 g yeast extract, 2 g glucose, 1000 ml distilled water, 10 ml 1 M phosphate buffer (pH 7.0) as the assay medium. The microorganism was incubated at 28° C. for 44 to 48 hours and the growth inhibitory activity of compound (I) was assayed by the serial dilution method.
# melanoma B-16 = assay: Antitumor therapeutic test in mice (life span prolongation), melanoma B-16 intraperitoneally transplanted, NCI-protocol 1,300; type: in vivo, mouse; conditions: i.p. once daily for 9 consecutive days
# Experimental: Therapeutic tests were carried out in mice according to NCI-protocol 1,300, Cancer Chemother, Reports, Part 3, 1972 , Vol.3, No.2, in which melanoma B-16 tumor cells had been intraperitoneally transplanted, compound (I) being administered intraperitoneally once daily for 9 consecutive days.
smiles,measurement,setting,value
COC1C=CC=C(C)Cc2cc(OS(=O)(=O)c3ccc(C)cc3)c(Cl)c(c2)N(C)C(=O)CC(OC(=O)C(C)C)C2(C)OC2C(C)C2CC1(O)NC(=O)O2 (stereo not drawn) [PDM-3-C20-p-toluenesulfonate],MIC,Tetrahymena pyriformis W,1 to 2 µg/mL
"COC1C=CC=C(C)Cc2cc(OS(C)(=O)=O)c(Cl)c(c2)N(C)C(=O)CC(OC(=O)C(C)C)C2(C)OC2C(C)C2CC1(O)NC(=O)O2 (stereo not drawn) [PDM-3-C20-methenesulfonate, PDM-3-C20-methanesulfonate]","Antitumor activities B-16 (T/C %), life span prolongation",melanoma B-16; 6.2 μg/kg,154%
same,"Antitumor activities B-16 (T/C %), life span prolongation",melanoma B-16; 12.5 μg/kg,195%
same,"Antitumor activities B-16 (T/C %), life span prolongation",melanoma B-16; 25 μg/kg,178%
same,"Antitumor activities B-16 (T/C %), life span prolongation",melanoma B-16; 50 μg/kg,189%
same,"Antitumor activities B-16 (T/C %), life span prolongation",melanoma B-16; 100 μg/kg,218%
same,"Antitumor activities B-16 (T/C %), life span prolongation",melanoma B-16; 200 μg/kg,246%
COC1C=CC=C(C)Cc2cc(OS(=O)(=O)c3ccc(Cl)cc3)c(Cl)c(c2)N(C)C(=O)CC(OC(=O)C(C)C)C2(C)OC2C(C)C2CC1(O)NC(=O)O2 (stereo not drawn) [PDM-3-C20-p-chlorobenzenesulfonate],MIC,Tetrahymena pyriformis W,2 µg/mL
COC1C=CC=C(C)Cc2cc(OS(=O)(=O)c3ccc(N)cc3)c(Cl)c(c2)N(C)C(=O)CC(OC(=O)C(C)C)C2(C)OC2C(C)C2CC1(O)NC(=O)O2 (stereo not drawn) [PDM-3-C20-p-aminobenzenesulfonate],MIC,Tetrahymena pyriformis W,2 to 4 µg/mL
